These are literature values, as cited in patent US20090017139A1, “Iodine therapy dosing for treating medical conditions” (priority 2007, published 2009).

For series [1] the following is noted: male rats, 100 days; cited from earlier work.
The conditions of series [2]: perchlorate 6 mg i.p., 2 hr predosing; cited from earlier work.
For series [3] the following is noted: 1.5 to more than 10 g/day for weeks at a time; cited from earlier work.
The test system of the next series is school age children. To be noted: 11 mg/d, 2.5 years later; cited from earlier work.

`I` [iodide, reference compound]: the thyroid size entry in series [1] is on record as “Significant increases in thyroid size”. Also, in series [2], the “reduction of thyroidal uptake by perchlorate” value is “more than 90%”.
With `[I-].[K+]` [potassium iodide], in series [3], the side effects entry was “few side effects are reported”.
For `[I-].[Na+]` [sodium iodide], the incidence of goiter in the series with school age children was 0.2%.
